21 compounds from article PMC8105289 (European journal of medicinal chemistry, 2021) can be followed below.

Data set [1] in a line: pKa by potentiometric titration.
A short description of data set [2]: logP / logD7.4 by potentiometric titration. The settings on record: for logP: n-octanol/water; for logD: n-octanol/aqueous buffer, pH 7.4.
A short description of data set [3]: Parallel artificial membrane permeability assay. The settings on record: for PAMPA % retention (membrane retention): Corning Gentest pre-coated PAMPA plate, HPLC-UV; for Papp: PAMPA; for PAMPA logPapp: log of the apparent permeability coefficient.
Another data set is described as follows: shake-flask. The settings on record: not told.
Data set [4] can be described thus: logD7.4 by shake-flask method. The settings on record: for logD: n-octanol/aqueous buffer, pH 7.4.
The nature of the next data set: potentiometric titration. The settings on record: not told.
The mark [5] stands for this setting: potentiometric titration, Sirius T3, 0.15 M KCl.
Where [6] appears, read: potentiometric titration, Sirius T3.
[7] abbreviates: ionic strength adjusted water (0.15 M KCl), pKa, potentiometric titration, Sirius T3, 0.15 M KCl.
Where [8] appears, read: ionic strength adjusted water (0.15 M KCl), pKa units higher than the pKa value of 9.

Marks after values point to notes of the source that are not given here.

What is called pKa is the negative logarithm of the acid dissociation constant. For orientation: logP means a log measure of how a compound divides between an organic and an aqueous phase. A high value points to a more lipophilic compound. In the case of `CS(=O)(=O)N[C@]1(CCc2ccccc2)C[S@+]([O-])C1` [Compound 21, cis-N-(1-Oxido-3-phenethylthietan-3-yl)methanesulfonamide], in data set [1], the “pKa units higher than the pKa value of 9” value is above 5. The same compound returned a pKa in data set [1] (setting [5]) of 9.87±0.01. Moreover, the logP in data set [2] (setting [6]) turned out to be 0.88±0.02.
In general, Papp refers to a coefficient for how fast a substance crosses the barrier. The logD is the decadic logarithm of the distribution of all forms, ionised or not, between an organic phase and buffer at a given pH. A higher logD goes with higher lipophilicity. For `O=S(=O)(NC1(CCc2ccccc2)COC1)c1ccccc1` [Compound 16, N-(3-Phenethyloxetan-3-yl)benzenesulfonamide], in data set [3], the “PAMPA % retention (membrane retention)” value was 0.260%, the Papp came out at 7.06 ×10⁻⁶ cm/s and the “PAMPA logPapp” value is −5.2. Besides, the “log partition n-octanol / aqueous buffer pH 7.4” value in “shake-flask” is 2.76 log10 concentration ratio. Further, the logD in data set [4] is 2.76.
In the case of `CC(=O)NC1(CCc2ccccc2)CS(=O)(=O)C1` [Compound 14, N-(1,1-Dioxido-3-phenethylthietan-3-yl)acetamide], in data set [3], the Papp is 2.11 ×10⁻⁶ cm/s and the “PAMPA logPapp” value is reported as −5.68. Moreover, the pKa in data set [1] (setting [7]) is above 12. In the data set “shake-flask”, the “log partition n-octanol / aqueous buffer pH 7.4” value is recorded as 1.18 log10 concentration ratio. For the same compound, the logD in data set [4] was 1.18.
Take `CN(C)S(=O)(=O)Nc1cn(-c2ccccc2)nn1` [Compound 32, N-(1-Phenyl-1H-1,2,3-triazol-4-yl)-N,N-dimethylaminesulfonamide]: the “PAMPA logPapp” value in data set [3] was −5.42. Besides, in “potentiometric titration”, the “log partition n-octanol / aqueous buffer pH 7.4” value worked out at 0.69 log10 concentration ratio and the “log partition n-octanol / water (0.15 M KCl)” value came to 1.72±0.01 log10 concentration ratio. The pKa in data set [1] (setting [5]) is given as 6.42±0.01. The compound further gave a logP in data set [2] (setting [6]) of 1.72±0.01.
Consider `CS(=O)(=O)NC1(CCc2ccccc2)CS(=O)C1` (stereo not drawn), for which, in the data set “potentiometric titration”, the “log partition n-octanol / aqueous buffer pH 7.4” value is on record as 0.87 log10 concentration ratio and the “log partition n-octanol / water (0.15 M KCl)” value is 0.88±0.02 log10 concentration ratio.
Regarding `CS(=O)(=O)Nc1cc(-c2ccccc2)on1` [Compound 27, N-(5-Phenylisoxazol-3-yl)methanesulfonamide], in data set [3], the Papp stood at 1.16 ×10⁻⁶ cm/s and the “PAMPA logPapp” value is on record as −5.94. In “potentiometric titration”, the “log partition n-octanol / aqueous buffer pH 7.4” value is −0.42 log10 concentration ratio and the “log partition n-octanol / water (0.15 M KCl)” value is given as 0.58±0.02 log10 concentration ratio. In data set [2], the logD is -0.42 and the logP came to 0.58 ± 0.02.
Take `CC1(NS(=O)(=O)CCc2ccccc2)COC1` [Compound 13, N-(3-Methyloxetan-3-yl)-2-phenylethane-1-sulfonamide]: in data set [3], the Papp was 6.79 ×10⁻⁶ cm/s and the “PAMPA logPapp” value is reported as −5.17. Moreover, in the data set “potentiometric titration”, the “log partition n-octanol / aqueous buffer pH 7.4” value is 1.58 log10 concentration ratio and the “log partition n-octanol / water (0.15 M KCl)” value is on record as 1.58±0.06 log10 concentration ratio. The ΔlogPcyclohexane in the data set “ΔlogP” (logPoctanol-water − logPcyclohexane-water) was found to be 1.87 ± 0.04. The ΔlogPheptane in “ΔlogP” (logPoctanol-water − logPheptane-water) amounted to 1.60 ± 0.05. In “ΔlogP” (logPoctanol-water − logPtoluene-water), this compound gave a ΔlogPtoluene of 0.43 ± 0.04. In data set [2], this compound had a logD of 1.58 and a logP of 1.58 ± 0.06.
As for `CS(=O)(=O)NC1(CCc2ccccc2)CSC1` [Compound 18, N-(3-Phenethylthietan-3-yl)methanesulfonamide], in data set [3], the Papp came to 14.6 ×10⁻⁶ cm/s and the “PAMPA logPapp” value is −4.8. For the same compound, the pKa in data set [1] (setting [8]) is above 5. Moreover, the “log partition n-octanol / aqueous buffer pH 7.4” value in “shake-flask” is reported as 2.44 log10 concentration ratio. In data set [4], this compound returned a logD of 2.44.
On to `CS(=O)(=O)NC1(CCc2ccccc2)CS(=O)(=O)C1` [Compound 24, N-(1,1-Dioxido-3-phenethylthietan-3-yl)methanesulfonamide], for which, in data set [3], the Papp is 3.66 ×10⁻⁶ cm/s and the “PAMPA logPapp” value is −5.4. Moreover, in the data set “potentiometric titration”, the “log partition n-octanol / aqueous buffer pH 7.4” value worked out at 1.03 log10 concentration ratio and the “log partition n-octanol / water (0.15 M KCl)” value amounted to 1.03±0.01 log10 concentration ratio. This compound gave a pKa in data set [1] (setting [8]) above 5. In data set [2], the logD was 1.03 and the logP came out at 1.03 ± 0.01.
`CN(C)S(=O)(=O)NC1(CCc2ccccc2)CSC1` [Compound 20, N,N-Dimethyl-[3-(2-phenylethyl)thietan-3-yl]sulfamoyl-amine]: in data set [3], the “PAMPA % retention (membrane retention)” value came out at 0.373%, the Papp is 11.4 ×10⁻⁶ cm/s and the “PAMPA logPapp” value was −4.9. For the same compound, the “log partition n-octanol / aqueous buffer pH 7.4” value in “shake-flask” was 2.83 log10 concentration ratio. The compound also displayed a logD in data set [4] of 2.83.
Take `O=S(=O)(Nc1cn(-c2ccccc2)nn1)c1ccccc1` [Compound 31, N-(1-Phenyl-1H-1,2,3-triazol-4-yl)benzenesulfonamide]: in data set [3], the Papp came to 4.09 ×10⁻⁶ cm/s and the “PAMPA logPapp” value was −5.39. For the same compound, in the data set “potentiometric titration”, the “log partition n-octanol / aqueous buffer pH 7.4” value stood at 1.06 log10 concentration ratio and the “log partition n-octanol / water (0.15 M KCl)” value is recorded as 2.55±0.04 log10 concentration ratio. In data set [2], the logD was 1.06 and the logP was 2.55 ± 0.04.
As to `CN(C)S(=O)(=O)NC1(CCc2ccccc2)CS(=O)(=O)C1` [Compound 26, 3-[(Dimethylsulfamoyl)amino]-3-(2-phenylethyl)-1lambda6-thietane-1,1-dione], in data set [3], the “PAMPA % retention (membrane retention)” value is listed as 0.105%, the Papp was 4.43 ×10⁻⁶ cm/s and the “PAMPA logPapp” value was −5.35. In “potentiometric titration”, the “log partition n-octanol / aqueous buffer pH 7.4” value is 1.82 log10 concentration ratio and the “log partition n-octanol / water (0.15 M KCl)” value stood at 1.83±0.05 log10 concentration ratio. For the same compound, in data set [2], the logD amounted to 1.82 and the logP stood at 1.83 ± 0.05.
As for `CN(C)S(=O)(=O)NC1(CCc2ccccc2)CS(=O)C1` (stereo not drawn), the “log partition n-octanol / aqueous buffer pH 7.4” value in the data set “shake-flask” is on record as 1.45 log10 concentration ratio.
Take `O=S(=O)(Nc1cc(-c2ccccc2)on1)c1ccccc1` [Compound 28, N-(5-Phenylisoxazol-3-yl)benzenesulfonamide]: in data set [3], the Papp is 5.79 ×10⁻⁶ cm/s and the “PAMPA logPapp” value was −5.24. Besides, in the data set “potentiometric titration”, the “log partition n-octanol / aqueous buffer pH 7.4” value was determined as 0.99 log10 concentration ratio and the “log partition n-octanol / water (0.15 M KCl)” value worked out at 1.76±0.03 log10 concentration ratio. Further, in data set [2], the logD was found to be 0.99 and the logP was determined as 1.76 ± 0.03.
As for `O=S1(=O)CC(CCc2ccccc2)(NS(=O)(=O)c2ccccc2)C1` [Compound 25, N-(1,1-Dioxido-3-phenethylthietan-3-yl)benzenesulfonamide], in the data set “shake-flask”, the “log partition n-octanol / aqueous buffer pH 7.4” value is 1.89 log10 concentration ratio. The logD in data set [4] worked out at 1.89.
Regarding `CN(C)S(=O)(=O)N[C@]1(CCc2ccccc2)C[S@+]([O-])C1` [Compound 23, cis-3-[(Dimethylsulfamoyl)amino]-3-(2-phenylethyl)-1lambda4-thietan-1-one], the “PAMPA logPapp” value in data set [3] was −5.47. This compound also displayed a pKa in data set [1] (setting [5]) of 10.33±0.02. The logD7.4 in data set [4] (n-octanol/aqueous buffer pH 7.4, shake-flask assay run by Analiza) is given as 1.45^†.
On to `CN(C)S(=O)(=O)NC1(CCc2ccccc2)COC1` [Compound 17, N,N-Dimethyl-[3-(2-phenylethyl)oxetane-3-yl]sulfamoyl-amine], for which, in data set [3], the Papp was 10.2 ×10⁻⁶ cm/s and the “PAMPA logPapp” value was −4.99. Further, in “shake-flask”, the “log partition n-octanol / aqueous buffer pH 7.4” value amounted to 1.96 log10 concentration ratio. In data set [4], the logD was found to be 1.96.
Turning to `CN(C)S(=O)(=O)Nc1cc(-c2ccccc2)on1` [Compound 29, N-(5-Phenylisoxazol-3-yl)-N,N-dimethylaminesulfonamide], the “PAMPA % retention (membrane retention)” value in data set [3] was 0.131%. In the data set “potentiometric titration”, the “log partition n-octanol / aqueous buffer pH 7.4” value was 0.42 log10 concentration ratio and the “log partition n-octanol / water (0.15 M KCl)” value was found to be 0.85±0.01 log10 concentration ratio. The compound further came in with a pKa in data set [1] (setting [5]) of 5.62±0.02. The logP in data set [2] (setting [6]) was determined as 0.85±0.01.
As to `O=S1CC(CCc2ccccc2)(NS(=O)(=O)c2ccccc2)C1` (stereo not drawn), the “log partition n-octanol / aqueous buffer pH 7.4” value in the data set “shake-flask” is recorded as 0.76 log10 concentration ratio.
With `CS(=O)(=O)Nc1cn(-c2ccccc2)nn1` [Compound 30, N-(1-Phenyl-1H-1,2,3-triazol-4-yl)methanesulfonamide], in data set [3], the Papp amounted to 2.42 ×10⁻⁶ cm/s and the “PAMPA logPapp” value is −5.62. In “potentiometric titration”, the “log partition n-octanol / aqueous buffer pH 7.4” value was found to be 0.06 log10 concentration ratio and the “log partition n-octanol / water (0.15 M KCl)” value was found to be 1.16±0.03 log10 concentration ratio. In data set [2], this compound displayed a logD of 0.06 and a logP of 1.16 ± 0.03.
`O=S(=O)(NC1(CCc2ccccc2)CSC1)c1ccccc1` [Compound 19, N-(3-Phenethylthietan-3-yl)benzenesulfonamide]: the pKa in data set [1] (setting [7]) was above 12. The “log partition n-octanol / aqueous buffer pH 7.4” value in the data set “shake-flask” is given as 2.96 log10 concentration ratio. In data set [4], this compound returned a logD of 2.96.
